Data as given in patent US11993576B2, “N-benzyl-N-arylsulfonamide derivative and preparation and use thereof” (Hangzhou Yirui Pharmaceutical Technology Co., Ltd, priority 2019, dated 2024).

Target: human Kv1.3 (Homo sapiens, UniProt P22001)
Test: IonWorks automated patch clamp assay of inhibitory activity against Kv1.3
Format: cell-based
Conditions: automated patch clamp method; CHO-K1 cells stably expressing human Kv1.3
Experimental: I. IonWorks Automated Patch Clamp Assay of Inhibitory Activity Against Kv1.3
The principle and method for Kv1.3 IonWorks assay can be found in Schroeder et al. [Schroeder et al. J Biomol Screen 2003, 8(1):50-64]
Inhibitory activity of the compounds against Kv1.3 was assessed using a CHO-K1 recombinant cell line stably expressing human Kv1.3 (Charles River, Calif.). The cells were cultured in an F-12K culture medium containing 5% calf serum (Invitrogen, Carlsbad. Calif.) in an incubator at 37° C. and under air humidity with 6% CO2. Prior to be fed in the IonWorks system, the adherent cells were treated with Versene at 37° C. for 6-7 min. After gently beating the culture flask, the cells were re-suspended in a PBS phosphate buffer, and then were centrifuged at 50×g for 4 min. After a short grinding, the cells were eventually re-suspended in an external recording solution at a density of approximately 1×10^6/mL.
The compounds were dissolved in DMSO to formulate a final assay concentration of 300× on the master plate. The final gradient assay concentrations were […], 0.096, 0.048, 0.24, 1.2, 6 and 30 μM. All 300× stock solutions of each compound in DMSO were transferred to a 384-well plate with 2 μl per well. The plates were sealed and stored at −80° C. until the day of assay.
On the day of assay, the plates were each thawed at room temperature. After centrifugation, 198 μl of the external recording solution (with the components of: 130 mM Na-Gluconate, 20 mM NaCl, 4 mM KCl, 1 mM MgCl2, 1.8 mM CaCl2, 5 mM Glucose and 10 mM HEPES, pH7.3) was added and mixed thoroughly. This step provided a 1:100 dilution for the compounds. After addition of cells to IonWorks, a further 1:3 dilution was carried out, resulting in a total dilution of 1:300. At least 8 wells were reserved as blank control on each of the plates, i.e., containing only 0.3% DMSO. In addition, at least 8 wells were reserved as positive control to detect the specificity to cell signals. Fluoxetine, a compound as the positive control, was assayed at its maximum blocking concentration (100 μm) and secondary maximum blocking concentration (10 μm). In addition, an internal recording solution used in the assay (with the components of: 100 mM K-gluconate, 40 mM KCl, 1 mM MgCl2, 1 mM EGTA and 10 mM HEPES, pH7.3) contained Amphotericin B at a final concentration of 200 μg/mL to gain current channels inside the cells. The osmotic pressure of the solution was adjusted with sucrose.
Experimental procedures were carried out following the protocols as set by IonWorks Quattro system (Molecular Devices, San Jose, CA). The current of human Kv1.3 was elicited to 0 millivolt (mV) for four times by a pulse lasting 1 second. A potential of −80 mV was maintained between pulses, for 5 seconds. First, a early voltage application program was started in the IonWorks Quattro system, and then the compounds were added and incubated for 600 seconds. Next, a late voltage application program was started until completion of all assays.
The maximum peak outward currents both before and after addition of the compounds as well as the average tail current elicited when the fourth pulse rose to 0 mV were measured. The inhibitory activity of the compounds against Kv1.3 can be calculated by dividing the measured current amplitude after addition of the compounds by the measured current amplitude before addition of the compounds.
All data was calibrated by a data filtration program of the IonWorks Quattro system. The filtration standard was that: seal quality >30 MΩ, decrease of seal resistance <50% and current amplitude >200 pA.

Chain of human Kv1.3 (P22001 whole entry): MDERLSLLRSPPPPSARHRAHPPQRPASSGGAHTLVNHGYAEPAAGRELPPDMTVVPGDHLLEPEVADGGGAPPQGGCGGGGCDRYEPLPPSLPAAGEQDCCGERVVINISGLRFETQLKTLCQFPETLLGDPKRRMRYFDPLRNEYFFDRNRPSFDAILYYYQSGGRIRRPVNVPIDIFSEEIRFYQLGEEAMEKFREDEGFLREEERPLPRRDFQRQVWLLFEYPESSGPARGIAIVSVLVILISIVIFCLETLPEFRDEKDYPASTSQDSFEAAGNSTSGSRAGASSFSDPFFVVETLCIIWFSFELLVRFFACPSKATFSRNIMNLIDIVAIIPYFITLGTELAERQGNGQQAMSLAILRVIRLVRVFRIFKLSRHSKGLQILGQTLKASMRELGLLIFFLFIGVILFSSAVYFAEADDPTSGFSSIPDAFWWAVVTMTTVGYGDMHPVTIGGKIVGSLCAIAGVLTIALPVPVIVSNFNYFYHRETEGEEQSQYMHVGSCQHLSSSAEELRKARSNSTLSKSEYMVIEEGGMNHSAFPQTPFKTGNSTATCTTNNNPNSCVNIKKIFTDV

Row | IC50 | Structure (SMILES)
1 | 265 nM | CCOC(=O)N1CCN(c2ccc(N(Cc3ccccc3)S(=O)(=O)c3ccccc3)cc2C#N)CC1 [Compound 1, ethyl 4-(4-(N-benzylbenzenesulfonamido)-2-cyanophenyl)piperazin-1-formate]
2 | 131 nM | CCOC(=O)N1CCN(c2ccc(N(Cc3ccc(F)cc3)S(=O)(=O)c3ccc(F)cc3)cc2C#N)CC1 [Compound 2, ethyl 4-(2-cyano-4-((4-fluoro-N-(4-fluorobenzyl)phenyl)sulfonamido)phenyl)piperazin-1-formate]
3 | 107 nM | CCOC(=O)N1CCN(c2ccc(N(Cc3ccc(F)c(OC)c3)S(=O)(=O)c3ccc(F)cc3)cc2C#N)CC1 [Compound 3, ethyl 4-(2-cyano-4-((4-fluoro-N-(4-fluoro-3-methoxybenzyl)phenyl)sulfonamido)phenyl)piperazin-1-formate]
4 | 12900 nM | CCOC(=O)N1CCN(c2ccc(N(C(=O)c3ccccc3)S(=O)(=O)c3ccccc3)cc2C#N)CC1 [Compound 4, ethyl 4-(2-cyano-4-(N-(benzenesulfonamido)benzamido)phenyl)piperazin-1-formate]
5 | 186 nM | N#Cc1cc(N(Cc2ccccc2)S(=O)(=O)c2ccccc2)ccc1N1CCC(=O)CC1 [Compound 5, N-benzyl-N-(3-cyano-4-(4-oxopiperidin-1-yl)phenyl) benzenesulfonamide]
6 | 193 nM | N#Cc1cc(N(Cc2ccccc2)S(=O)(=O)c2ccccc2)ccc1N1CCC(O)CC1 [Compound 6, N-benzyl-N-(3-cyano-4-(4-hydroxypiperidin-1-yl)phenyl)benzenesulfonamide]
7 | 312 nM | CC(=O)OC1CCN(c2ccc(N(Cc3ccccc3)S(=O)(=O)c3ccccc3)cc2C#N)CC1 [Compound 7, N-benzyl-N-(3-cyano-4-(4-acetyloxypiperidin-1-yl)phenyl)benzenesulfonamide]
8 | 9300 nM | CCCN(c1ccc(N2CCN(C(=O)OCC)CC2)c(C#N)c1)S(=O)(=O)c1ccc(F)cc1 [Compound 8, Ethyl 4-(2-cyano-4-((4-fluoro-N-propylphenyl)sulfonamido)phenyl)piperazin-1-formate]
9 | 134 nM | CCCS(=O)(=O)N(Cc1ccc(F)cc1)c1ccc(N2CCN(C(=O)OCC)CC2)c(C#N)c1 [Compound 9, ethyl 4-(2-cyano-4-(N-(4-fluorobenzyl)propanesulfonamido)phenyl)piperazin-1-formate]
10 | 98 nM | N#Cc1cc(N(Cc2ccc(F)cc2)S(=O)(=O)c2ccccc2)ccc1N1CCOCC1 [Compound 10, N-(3-cyano-4-morpholinylphenyl)-N-(4-fluorobenzyl) benzenesulfonamide]
11 | 195 nM | CN(C)C(=O)N1CCN(c2ccc(N(Cc3ccccc3)S(=O)(=O)c3ccccc3)cc2C#N)CC1 [Compound 11, 4-(4-(N-benzylbenzenesulfonamido)-2-cyanophenyl)-N,N-dimethylpiperazin-1-formamide]
12 | 234 nM | CN(C)S(=O)(=O)C1CCN(c2ccc(N(Cc3ccccc3)S(=O)(=O)c3ccccc3)cc2C#N)CC1 [Compound 12, 1-(4-(N-benzylbenzenesulfonamido)-2-cyanophenyl)-N,N-dimethylpiperidin-4-sulfonamide]
13 | 6400 nM | CCOC(=O)N1CCN(c2ccc(N(CC(C)C)S(=O)(=O)c3ccccc3)cc2C#N)CC1 [Compound 13, ethyl 4-(2-cyano-4-(N-isobutylphenylsulfonamido)phenyl)piperazin-1-formate]
14 | 129 nM | CCOC(=O)NC1CCN(c2ccc(N(Cc3ccccc3)S(=O)(=O)c3ccccc3)cc2C#N)CC1 [Compound 14, ethyl 1-(4-(N-benzylbenzenesulfonamido)-2-cyanophenyl)piperidin-4-yl carbamate]
15 | 310 nM | CC(=O)NC1CCN(c2ccc(N(Cc3ccccc3)S(=O)(=O)c3ccccc3)cc2C#N)C1 (stereo not drawn) [Compound 15, N-(1-(4-(N-benzylbenzenesulfonamido)-2-cyanophenyl)pyrrolidin-3-yl)acetamide]
16 | 1260 nM | N#Cc1cc(N(Cc2ccccc2)S(=O)(=O)c2ccccc2)ccc1N1C(=O)CCCC1=O [Compound 16, N-benzyl-N-(3-cyano-4-(2,6-dioxopiperidin-1-yl)phenyl)benzenesulfonamide]
17 | 190 nM | CN1CCCN(c2ccc(N(Cc3ccccc3)S(=O)(=O)c3ccccc3)cc2C#N)C1=O [Compound 17, N-benzyl-N-(3-cyano-4-(3-methyl-2-oxotetrahydropyrimidin-1(2H)-yl)phenyl)benzenesulfonamide]
18 | 101 nM | CN(C)CCOC1CCN(c2ccc(N(Cc3ccccc3)S(=O)(=O)c3ccccc3)cc2C#N)CC1 [Compound 18, N-benzyl-N-(3-cyano-4-(4-(2-(dimethylamino)ethoxy)piperidin-1-yl)phenyl)benzenesulfonamide]
19 | 130 nM | CCCS(=O)(=O)N(Cc1ccc(F)cc1)c1ccc(N2CCC(O)CC2)c(C#N)c1 [Compound 19, N-(3-cyano-4-(4-hydroxypiperidin-1-yl)phenyl)-N-(4-fluorobenzyl)propane-1-sulfonamide]
20 | 90 nM | N#Cc1cc(N(Cc2ccc(F)cc2)S(=O)(=O)c2ccccc2)ccc1N1CCC(O)CC1 [Compound 20, N-(3-cyano-4-(4-hydroxypiperidin-1-yl)phenyl)-N-(4-fluorobenzyl)benzenesulfonamide]
21 | 333 nM | CCCS(=O)(=O)N(Cc1ccccc1)c1ccc(N2CCN(C(=O)OCC)CC2)c(C#N)c1 [Compound 22, Ethyl 4-(4-(N-benzylpropanesulfonamido) 2-cyanophenyl)piperazin-1-formate]
22 | 176 nM | CCCS(=O)(=O)N(Cc1cccc(F)c1)c1ccc(N2CCN(C(=O)OCC)CC2)c(C#N)c1 [Compound 23, Ethyl 4-(2-cyano-4-(N-(3-fluorobenzyl)propanesulfonamido)phenyl) piperazin-1-formate]
23 | 321 nM | CCCS(=O)(=O)N(Cc1ccccc1F)c1ccc(N2CCN(C(=O)OCC)CC2)c(C#N)c1 [Compound 25, Ethyl 4-(2-cyano-4-(N-(2-fluorobenzyl)propanesulfonamido)phenyl) piperazin-1-formate]
24 | 420 nM | CCCS(=O)(=O)N(Cc1cccc(OC)c1)c1ccc(N2CCN(C(=O)OCC)CC2)c(C#N)c1 [Compound 26, Ethyl 4-(2-cyano-4-(N-(3-methoxybenzyl)propanesulfonamido)phenyl) piperazin-1-formate]
25 | 239 nM | CCCS(=O)(=O)N(Cc1ccc(OC)cc1)c1ccc(N2CCN(C(=O)OCC)CC2)c(C#N)c1 [Compound 27, Ethyl 4-(2-cyano-4-(N-(4-methoxybenzyl)propanesulfonamido)phenyl)piperazin-1-formate]
26 | 439 nM | CCCS(=O)(=O)N(Cc1ccc(OC)cc1F)c1ccc(N2CCN(C(=O)OCC)CC2)c(C#N)c1 [Compound 29, Ethyl 4-(2-cyano-4-(N-(2-fluoro-4-methoxybenzyl)propanesulfonamido)phenyl)piperazin-1-formate]
27 | 288 nM | CCCS(=O)(=O)N(Cc1ccc(F)cc1OC)c1ccc(N2CCN(C(=O)OCC)CC2)c(C#N)c1 [Compound 30, Ethyl 4-(2-cyano-4-(N-(4-fluoro-2-methoxybenzyl)propanesulfonamido)phenyl)piperazin-1-formate]
28 | 412 nM | CCCS(=O)(=O)N(Cc1ccncn1)c1ccc(N2CCN(C(=O)OCC)CC2)c(C#N)c1 [Compound 31, Ethyl 4-(2-cyano-4-(N-(pyrimidin-4-ylmethyl)propanesulfonamido)phenyl) piperazin-1-formate]
29 | 165 nM | CCCS(=O)(=O)N(Cc1ccccn1)c1ccc(N2CCN(C(=O)OCC)CC2)c(C#N)c1 [Compound 32, Ethyl 4-(2-cyano-4-(N-(pyridin-2-ylmethyl)propanesulfonamido)phenyl) piperazin-1-formate]
30 | 839 nM | CCCS(=O)(=O)N(Cc1ccco1)c1ccc(N2CCN(C(=O)OCC)CC2)c(C#N)c1 [Compound 33, Ethyl 4-(2-cyano-4-(N-(furan-2-ylmethyl)propanesulfonamido)phenyl) piperazin-1-formate]
